Source: ChEMBL document CHEMBL5038581, “Design, synthesis, and biological evaluation of novel dual inhibitors targeting lysine specific demethylase 1 (LSD1) and histone deacetylases (HDAC) for treatment of gastric cancer” (Eur J Med Chem, 2021)

What was measured:
[1] = biological target: CYP3A4 (Homo sapiens, UniProt P08684); assay: in vitro; details: probe testosterone
[2] = biological target: CYP2D6 (Homo sapiens, UniProt P10635); assay: in vitro; details: probe dextromethorphan
Sequence of CYP2D6 (P10635 whole entry): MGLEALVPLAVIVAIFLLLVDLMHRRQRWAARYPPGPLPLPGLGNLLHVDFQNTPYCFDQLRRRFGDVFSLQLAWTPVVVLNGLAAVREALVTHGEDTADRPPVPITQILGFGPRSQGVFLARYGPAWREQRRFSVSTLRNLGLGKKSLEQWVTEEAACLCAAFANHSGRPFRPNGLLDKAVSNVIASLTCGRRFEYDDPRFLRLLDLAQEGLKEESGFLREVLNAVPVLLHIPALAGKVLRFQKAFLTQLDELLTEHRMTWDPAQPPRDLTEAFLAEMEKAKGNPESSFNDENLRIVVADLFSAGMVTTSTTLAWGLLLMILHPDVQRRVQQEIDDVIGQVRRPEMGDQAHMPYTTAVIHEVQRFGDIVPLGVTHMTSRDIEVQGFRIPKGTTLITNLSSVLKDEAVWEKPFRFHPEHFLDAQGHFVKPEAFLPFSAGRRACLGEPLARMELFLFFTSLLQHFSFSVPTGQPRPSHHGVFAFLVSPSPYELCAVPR

Sequence of CYP3A4 (P08684 whole entry): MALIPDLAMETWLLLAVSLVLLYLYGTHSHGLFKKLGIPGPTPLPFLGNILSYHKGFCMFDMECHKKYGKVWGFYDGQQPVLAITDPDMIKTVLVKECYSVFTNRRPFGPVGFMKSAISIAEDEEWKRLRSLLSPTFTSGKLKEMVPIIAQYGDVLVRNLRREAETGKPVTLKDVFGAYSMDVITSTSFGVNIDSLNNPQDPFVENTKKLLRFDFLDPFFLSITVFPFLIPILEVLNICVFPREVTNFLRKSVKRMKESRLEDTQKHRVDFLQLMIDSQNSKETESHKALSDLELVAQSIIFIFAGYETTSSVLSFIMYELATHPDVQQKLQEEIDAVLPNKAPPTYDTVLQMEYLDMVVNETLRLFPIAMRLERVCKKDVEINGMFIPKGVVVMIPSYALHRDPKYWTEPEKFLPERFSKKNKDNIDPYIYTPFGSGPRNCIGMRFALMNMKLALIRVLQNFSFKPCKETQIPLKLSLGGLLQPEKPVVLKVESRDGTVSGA

| inhibition at 1 µM [2] [%] | SMILES | inhibition at 0.1 µM [1] [%] |
| --- | --- | --- |
| – | CC(=O)N1CCN(c2ccc(OCC3COC(Cn4ccnc4)(c4ccc(Cl)cc4Cl)O3)cc2)CC1 (configuration not stated) [KETOCONAZOLE] | 65.9 |
| 91.3 | C=C[C@H]1C[N@@]2CC[C@H]1C[C@@H]2[C@@H](O)c1ccnc2ccc(OC)cc12 [QUINIDINE] | – |
